Measured values taken from patent publication US12048691B2 (SPERO THERAPEUTICS, INC., priority 2020, dated 2024).
≈ marks a conversion by molar mass, not a printed value. Read-outs that look alike come from different tables or passages of the source.

Legend:
Assay type in all cases: cell-based
[1] = test system: P. aeruginosa isolates that overproduced AmpC; assay: Broth microdilution susceptibility of isolates overexpressing AmpC
Description: (§1) Frozen-form broth microdilution panels were manufactured by JMI Laboratories and contained cation-adjusted Mueller-Hinton broth. Quality assurance was performed by sterility checks, colony counts, and testing CLSI recommended quality control reference strains.

[2] = test system: Enterobacterales overproducing AmpC; assay: as above
Description: as §1

[3] = test system: P. mirabilis; assay: Broth microdilution against US UTI pathogens 2019-2020; conditions: P. mirabilis (235); for % susceptible; CLSI: cefuroxime: oral breakpoint
Description: (§2) This study assessed the in vitro activity of tebipenem and comparator agents against Enterobacterales (ENT) responsible for UTIs in the US during 2019-2020. A total of 3,576 ENT recovered from urine samples during the 2019-2020 STEWARD Surveillance Program were included in the study. Isolates were collected from medical centers in all 9 US Census Regions and were centrally tested for susceptibility by reference broth microdilution method. MIC interpretation was performed based on CLSI criteria.

[4] = test system: K. pneumoniae; assay: as above; conditions: K. pneumoniae (511); for % susceptible; CLSI: cefuroxime: oral breakpoint
Description: as §2

[5] = test system: Enterobacterales (ENT); assay: as above; conditions: for % susceptible; CLSI: cefuroxime: oral breakpoint
Description: as §2

[6] = test system: E. coli; assay: as above; conditions: E. coli (2,339); for % susceptible; CLSI: cefuroxime: oral breakpoint
Description: as §2

[7] = test system: AmpC production in P. aeruginosa; assay: AmpC induction (nitrocefin hydrolysis after drug exposure)
Description: (§3) AmpC induction was determined as follows. Baseline MIC values were determined by broth microdilution method, as described above, for 9 Gram-negative isolates with basal expression of ampC. These isolates were cultured overnight on blood agar plates. A standardized inoculum made from fresh overnight plate cultures was added to flasks containing 50 mL of Luria-Bertani (LB) broth and incubated by shaking at 37° C. to OD600 of 0.3. […] These cultures were incubated under shaking conditions. A 40 mL aliquot of bacterial cultures was sampled at time 0 and 2 hours after drug exposures. Each sample aliquot was harvested by centrifugation and the supernatant was discarded.
(§4) Protein crude extract preparations were made in 200 μL of BugBusterR (Novagen, Darmstadt, Germany) per manufacturer instructions and cell debris was removed by centrifugation. Protein concentrations were determined in each crude extract by standard methodologies.
(§5) AmpC induction was measured by the intensity of β-lactamase hydrolytic activity against 0.1 mM nitrocefin in 0.1 M phosphate buffer at pH 7.0 using spectrophotometry at 482 nm (Δ absorbance/minute/mg of protein). The drug exposure conditions that caused a >4-fold increase in hydrolysis activity compared to the baseline were subjected to postinduction experiments. Briefly, cells were grown under the same conditions as before and tested for susceptibility by broth microdilution.

[8] = test system: AmpC production in Enterobacterales; assay: as above; conditions: tebipenem/imipenem except for C. koseri and S. marcescens
Description: as §3, §4, §5

[9] = test system: E. coli; assay: Susceptibility of E. coli from urinary tract infections, 18 EU countries 2020 (STEWARD)
Description: The study assessed the prevalence of resistance and evaluated the activity of oral tebipenem (TBP) and comparators against EC from urinary tract infections.
Results were interpreted using EUCAST criteria. […] ESBL phenotypes were determined by CLSI criteria and sequenced to identify CTX-M-15 genotype and clonal complex ST131.

[10] = test system: Vancomycin-susceptible Enterococcus faecalis; assay: Broth microdilution against Gram-positive clinical isolates; conditions: E. faecalis; for MIC90: Enterococcus faecalis, 31 isolates
Description: (§6) The purpose of this study was to investigate the in vitro activity of tebipenem and comparator agents, including ertapenem and meropenem, against a recent collection of Gram-positive isolates associated with clinical infections. The susceptibility of 580 Gram-positive organisms were tested, including: Methicillin-susceptible Staphylococcus aureus (MSSA, 489 isolates), Methicillin-susceptible Staphylococcus epidermidis (MSSE, 31), other methicillin-susceptible coagulase-negative staphylococci (MSCONS, 29), and Vancomycin-susceptible Enterococcus faecalis (31). Bacterial species were identified by JMI Laboratories using standard microbiology methods and matrix-assisted laser desorption ionization-time of flight mass spectrometry (Bruker Daltonics, Bremen, Germany). The isolates were collected in 2018 and 2019 as part of the SENTRY surveillance program and selected to be representative of these species with 45.0% from the United States, 44.3% from Europe, 5.3% from the Asia-Pacific region, and 5.3% from Latin America. Isolates are primarily from pneumonia in hospitalized patients (498 isolates; 85.9%), urinary tract infections (42 isolates; 7.2%), and bloodstream infections (38 isolates; 6.6%). Isolates were tested in a central laboratory (JMI Laboratories) for antimicrobial susceptibility using the CLSI M07 (2018) reference broth microdilution method. JMI Laboratories produced frozen-form 96-well panels and used cation-adjusted Mueller-Hinton broth (CA-MHB) as the testing medium. All categorical interpretations used CLSI M100 (2021) and EUCAST v10.0 (2021) breakpoint criteria, where published. Quality control organisms include Escherichia coli ATCC 25922, Escherichia coli ATCC 35218, Enterococcus faecalis ATCC 29212, Pseudomonas aeruginosa ATCC 27853, and Staphylococcus aureus ATCC 29213 were tested concurrently with clinical isolates.

[11] = test system: other methicillin-susceptible coagulase-negative staphylococci (MSCONS); assay: as above
Description: The purpose of this study was to investigate the in vitro activity of tebipenem and comparator agents, including ertapenem and meropenem, against a recent collection of Gram-positive isolates associated with clinical infections. The susceptibility of 580 Gram-positive organisms were tested, including: […] Bacterial species were identified by JMI Laboratories using standard microbiology methods and matrix-assisted laser desorption ionization-time of flight mass spectrometry (Bruker Daltonics, Bremen, Germany). […] Isolates were tested in a central laboratory (JMI Laboratories) for antimicrobial susceptibility using the CLSI […] (2018) reference broth microdilution method. JMI Laboratories produced frozen-form 96-well panels and used cation-adjusted Mueller-Hinton broth (CA-MHB) as the testing medium. […] Quality control organisms include Escherichia coli ATCC 25922, Escherichia coli ATCC 35218, Enterococcus faecalis ATCC 29212, Pseudomonas aeruginosa ATCC 27853, and Staphylococcus aureus ATCC 29213 were tested concurrently with clinical isolates.

[12] = test system: Methicillin-susceptible Staphylococcus epidermidis (MSSE); assay: as above
Description: as §6

[13] = test system: Methicillin-susceptible Staphylococcus aureus (MSSA); assay: as above
Description: as §6

[14] = test system: methicillin-susceptible staphylococci, including MSSA, MSSE, and other MSCONS; assay: Broth microdilution against Gram-positive clinical isolates, summary
Description: as §6, with “JMI Laboratories produced frozen-form 96-well panels and used cation-adjusted Mueller-Hinton broth (CA-MHB) as the testing medium. All categorical interpretations used CLSI M100 (2021) and EUCAST v10.0 (2021) breakpoint criteria, where published. Quality control organisms include Escherichia coli ATCC 25922, Escherichia coli ATCC 35218, Enterococcus faecalis ATCC 29212, Pseudomonas aeruginosa ATCC 27853, and Staphylococcus aureus ATCC 29213 were tested concurrently with clinical isolates.” left out

[15] = P. aeruginosa overproducing AmpC
[16] = Staphylococcus epidermidis, 31 isolates
[17] = Staphylococcus aureus, 489 isolates

| Molecule | CLSI % R ([1]; P. aeruginosa (32)) | CLSI % S ([1]; P. aeruginosa (32)) | CLSI %1 ([2]; Enterobacterales (36)) | CLSI % R ([2]; Enterobacterales (36)) | CLSI % S ([2]; Enterobacterales (36)) | % susceptible; CLSI [3] | % susceptible; CLSI [4] | % susceptible; CLSI ([5]; All (3,567)) | % susceptible; CLSI [6] | effect of exposure on production of AmpC [7] | effect of exposure on production of AmpC [8] | prevalence of resistant phenotype ([9]; all E. coli) | MIC range ([1]; P. aeruginosa (32)) | MIC50 [2] | MIC90 [2] | MIC50 ([2]; Enterobacterales (36)) | MIC90 ([2]; Enterobacterales (36)) | MIC range ([2]; Enterobacterales (36)) | MIC90 [10] | susceptibility (% S) [11] | other results |
| --- | --- | --- | --- | --- | --- | --- | --- | --- | --- | --- | --- | --- | --- | --- | --- | --- | --- | --- | --- | --- | --- |
| CC(C)(O/N=C(\C(=O)N[C@@H]1C(=O)N2C(C(=O)[O-])=C(C[n+]3ccccc3)CS[C@H]12)c1csc(N)n1)C(=O)O [Ceftazidime] | 71.9% | 15.6% | 11.4% | 60.0% | 28.6% | (98.7) % | (86.1) % | (88.1%) | (89.3) % | increased the production of AmpC | did not seem to affect production of AmpC |  |  |  |  |  |  |  |  |  | MIC50 ([2]; Enterobacterales (36), read-out: MIC50): 32 mg/L (≈ 58.5 µM); MIC90 ([2]; Enterobacterales (36), read-out: MIC90): > 32 mg/L; % susceptible; CLSI ([3]; listed as CAZ): 98.7%; susceptibility ([5]; against ENT, EC, and KPN): 86.1-89.3%; MIC90 ([5]; against ENT, EC, and KPN, read-out: MIC90): 8 to 16 mg/L (≈ 14.6 to 29.3 µM) |
| C[C@H]1COc2c(N3CCN(C)CC3)c(F)cc3c(=O)c(C(=O)O)cn1c23 [Levofloxacin, levofloxacin] |  |  |  |  |  | (71.8) % | (87.1) % | (79.4) % | (75.7) % |  |  | 20.6% |  |  |  |  |  |  |  |  | Susceptibility rate [10]: 80.6% |
| C[C@@H](O)[C@H]1C(=O)N2C(C(=O)O)=C(S[C@@H]3CN[C@H](C(=O)N(C)C)C3)[C@H](C)[C@H]12 [Meropenem, meropenem] | 0.0% | 100.0% | 0.0% | 0.0% | 100.0% |  |  |  |  |  |  |  | 0.12 to 2 μ/ml | 0.03 mg/L (≈ 0.0782 µM) | 0.12 mg/L (≈ 0.313 µM) | 0.03 μ/ml | 0.12 μ/ml | ≤0.015 to 1 μ/ml | > 1 mg/L |  | CLSI %1 ([1]; P. aeruginosa (32)): 0.0%; MIC90 ([9]; Escherichia coli, all E. coli (764) from UTIs): 0.03 mg/L (≈ 0.0782 µM); Susceptibility rate ([9]; all E. coli, EUCAST criteria): 100% |
| C[C@@H](O)[C@H]1C(=O)N2C(C(=O)O)=C(SC3CN(C4=NCCS4)C3)[C@H](C)[C@H]12 [Tebipenem, tebipenem] |  |  |  |  |  |  |  |  |  | increased the production of AmpC | increased production of AmpC |  | 2 to 8 μ/ml | 0.03 mg/L (≈ 0.0782 µM) | 0.25 mg/L (≈ 0.652 µM) | 0.03 μ/ml | 0.25 μ/ml | 0.015 to 1 μ/ml | 1 mg/L (≈ 2.61 µM) |  | MIC50 [1, 15]: 4 mg/L (≈ 10.4 µM); MIC90 [1, 15]: 4 mg/L (≈ 10.4 µM); concentration inhibiting all isolates ([2]; Enterobacterales overproducing AmpC): ≤ 1 µg/mL; MIC90 ([5]; against ENT, EC, and KPN): 0.015 to 0.06 mg/L (≈ 0.0391 to 0.156 µM); MIC90 fold lower than ertapenem [11]: 32 fold; MIC50 ([11]; 29 isolates): 0.015 mg/L (≈ 0.0391 µM); MIC90 ([11]; 29 isolates): 0.03 mg/L (≈ 0.0782 µM); MIC90 fold lower than ertapenem [10]: 16 fold; MIC90 fold lower than meropenem [10]: at least 2 fold; concentration inhibiting all isolates [10]: ≤ 1 mg/L; MIC90 fold lower than ertapenem [12]: 32 fold; MIC50 [12, 16]: 0.008 mg/L (≈ 0.0209 µM); MIC90 [12, 16]: 0.015 mg/L (≈ 0.0391 µM); MIC90 fold lower than ertapenem [13]: 8 fold; MIC50 [13, 17]: 0.015 mg/L (≈ 0.0391 µM); MIC90 [13, 17]: 0.03 mg/L (≈ 0.0782 µM); MIC50 and MIC90 values, range over species groups [14]: 0.015 to 0.03 mg/L; activity fold greater than ertapenem [14]: 16- to 32 fold |
| CC[C@H]1OC(=O)[C@H](C)[C@@H](O[C@H]2C[C@@](C)(OC)[C@@H](O)[C@H](C)O2)[C@H](C)[C@@H](O[C@@H]2O[C@H](C)C[C@H](N(C)C)[C@H]2O)[C@](C)(O)C[C@@H](C)C(=O)[C@H](C)[C@@H](O)[C@]1(C)O [erythromycin] |  |  |  |  |  |  |  |  |  |  |  |  |  |  |  |  |  |  |  | 54.8% | Susceptibility rate [12]: 54.8%; Susceptibility rate [13]: 65.6% |
| trimethoprim-sulfamethoxazole [TMP-SMX] |  |  |  |  |  |  | (79.8) % | (73.9) % | (69.2) % |  |  | 30.1% |  |  |  |  |  |  |  | 83.9% | MIC50 [3]: ≤ 120 mg/L; MIC90 [3]: > 4000 mg/L; MIC50 [4]: ≤ 120 mg/L; MIC90 [4]: > 4000 mg/L; MIC50 ([5]; All (3,567)): ≤ 120 mg/L; MIC90 ([5]; All (3,567)): > 4000 mg/L; MIC50 [6]: ≤ 120 mg/L; MIC90 [6]: > 4000 mg/L |
